From patent USRE37781E1, “Substituted cyclic carbonyls and derivatives thereof useful as retroviral protease inhibitors” (DuPont Pharmaceuticals Company, priority 1991, dated 2002)
≈ marks a conversion by molar mass, not a printed value. Like-named read-outs stand apart in the source and are kept apart here.

Key:
HIV protease = biological target: T1, HIV protease (Human immunodeficiency virus type 1 group M subtype B, UniProt P04585); assay: biochemical; parameters: species or system HIV-1
T1 construct: plasmid containing HIV protease under the control of an inducible T7 promoter; made in house; host or cells: E. coli (inclusion bodies, T7 promoter)
Experimental: HIV Protease Inhibition Assay—Spectroscopic Method
Inclusion bodies were solubilized in 8M urea, 50 mM tris pH 8.0. Protease activity was recovered by dilution 20-fold into buffer containing 50 mM sodium acetate pH 5.5, 1 mM EDTA, 10% glycerol and 5% ethylene glycol. Enzyme was used at a final concentration of 1.0-10 ug/ml.
Stock solutions of 10 mM were prepared in DMSO.
All further dilutions were done in DMSO.

HIV-1 (RF) in MT-2 cells = assay: microbe, parasite or virus in culture; assay type: cell-based
How it was run: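 HIV-1 laboratory strains (RF, MN, IIIB) grown in H9 cells in RPMI 1640 with 5% FCS; infections in MT-2 cells. Viral RNA quantified by hybridization with biotinylated gag/pol capture probes on streptavidin plates and alkaline phosphatase-conjugated reporter probes; BH10 gag-pol in vitro transcripts serve as RNA standards.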

[1] = Human immunodeficiency virus 1, MT2, Table 1c, read-out: IC90
[2] = second table headed Table 2A, read-out: Ki
[3] = Human immunodeficiency virus 1, MT2, Table 2A, read-out: IC90
[4] = Human immunodeficiency virus 1, MT2, second table headed Table 2A, read-out: IC90

SMILES | Ki (HIV protease; Ki) [nM] | IC90 (HIV-1 (RF) in MT-2 cells; [1]) [µg/mL] | melting point [°C] | other results
N#CN=C1N(Cc2ccccc2)C(Cc2ccccc2)C(O)C(O)C(Cc2ccccc2)N1Cc1ccccc1 (stereo not drawn) [Example 1BZ] | 10 to 1000 | < 10 | 94 | –
N#CN=C1N(Cc2cccc(N)c2)C(Cc2ccccc2)C(O)C(O)C(Cc2ccccc2)N1Cc1cccc(N)c1 (stereo not drawn) [Example 1CF] | < 10 | < 10 | 114.4 | –
N#CN=C1N(CC2CCC2)C(Cc2ccccc2)C(O)C(O)C(Cc2ccccc2)N1CC1CCC1 (stereo not drawn) [Example 1CK] | < 10 | < 10 | 235.5 | –
C=CCN1C(=O)N(Cc2ccccc2)C(Cc2ccccc2)C(O)C(O)C1Cc1ccccc1 (stereo not drawn) [Example 2G] | – | – | 226.5 | Ki (HIV protease; Table 2A, read-out: Ki): < 10 nM; Ki (HIV protease; [2]): < 10 nM; IC90 (HIV-1 (RF) in MT-2 cells; [3]): < 10 µg/mL; IC90 (HIV-1 (RF) in MT-2 cells; [4]): < 10 µg/mL
CN1C(=O)N(Cc2ccccc2)C(Cc2ccccc2)C(O)C(O)C1Cc1ccccc1 (stereo not drawn) [Example 2H] | – | – | 81 | Ki (HIV protease; Table 2A, read-out: Ki): 10 to 1000 nM; Ki (HIV protease; [2]): 10 to 1000 nM; IC90 (HIV-1 (RF) in MT-2 cells; [3]): < 10 µg/mL; IC90 (HIV-1 (RF) in MT-2 cells; [4]): < 10 µg/mL
O=C1N(Cc2cccc(OC(F)(F)F)c2)C(Cc2ccccc2)C(O)C(O)C(Cc2ccccc2)N1Cc1cccc(OC(F)(F)F)c1 (stereo not drawn) [Example 2J] | – | – | 128.3 | Ki (HIV protease; Table 2A, read-out: Ki): 10 to 1000 nM; Ki (HIV protease; [2]): 10 to 1000 nM; IC90 (HIV-1 (RF) in MT-2 cells; [3]): < 10 µg/mL; IC90 (HIV-1 (RF) in MT-2 cells; [4]): < 10 µg/mL
N#CN=C1N(CC2CCCCC2)C(Cc2ccccc2)C(O)C(O)C(Cc2ccccc2)N1CC1CCCCC1 (stereo not drawn) [Example 1CJ] | < 10 | < 10 | 96.4 | –
N#CN=C1N(Cc2ccc(O)cc2)C(Cc2ccccc2)C(O)C(O)C(Cc2ccccc2)N1Cc1ccc(O)cc1 (stereo not drawn) [Example 1BU] | < 10 | < 10 | 103.3 | –
CCCN1C(=NC#N)N(CCC)C(Cc2ccccc2)C(O)C(O)C1Cc1ccccc1 (stereo not drawn) [Example 1CL] | 10 to 1000 | < 10 | 216.6 | –
N#CN=C1N(Cc2cccc(C#N)c2)C(Cc2ccccc2)C(O)C(O)C(Cc2ccccc2)N1Cc1cccc(C#N)c1 (stereo not drawn) [Example 1CH] | 10 to 1000 | < 10 | 108.5 | –
N#CN=C1N(CC2CC2)[C@H](Cc2ccccc2)[C@H](O)[C@@H](O)[C@@H](Cc2ccccc2)N1CC1CC1 [Example 1BS] | 10 to 1000 | < 10 | 211.2 | –
CC(C)=CCN1C(=NC#N)N(CC=C(C)C)C(Cc2ccccc2)C(O)C(O)C1Cc1ccccc1 (stereo not drawn) [Example 1CI] | 10 to 1000 | < 10 | 72.9 | –
C=CCN1C(=NC#N)N(CC=C)C(Cc2ccccc2)C(O)C(O)C1Cc1ccccc1 (stereo not drawn) [Example 1BW] | 10 to 1000 | 10 to 100 (≈ 23.2 to 232 µM) | 70.2 | –
O=C1N(Cc2ccc(F)c(C(F)(F)F)c2)C(Cc2ccccc2)C(O)C(O)C(Cc2ccccc2)N1Cc1ccc(F)c(C(F)(F)F)c1 (stereo not drawn) [Example 2K] | – | – | 167.2 | Ki (HIV protease; Table 2A, read-out: Ki): 10 to 1000 nM; Ki (HIV protease; [2]): 10 to 1000 nM; IC90 (HIV-1 (RF) in MT-2 cells; [3]): < 10 µg/mL; IC90 (HIV-1 (RF) in MT-2 cells; [4]): < 10 µg/mL
C=CCN1C(=O)N(CC=C(C)C)C(Cc2ccccc2)C(O)C(O)C1Cc1ccccc1 (stereo not drawn) [Example 2C] | – | – | 62 | Ki (HIV protease; Table 2A, read-out: Ki): < 10 nM; Ki (HIV protease; [2]): < 10 nM; IC90 (HIV-1 (RF) in MT-2 cells; [3]): < 10 µg/mL; IC90 (HIV-1 (RF) in MT-2 cells; [4]): < 10 µg/mL
O=C1N(Cc2cc(F)cc(C(F)(F)F)c2)C(Cc2ccccc2)C(O)C(O)C(Cc2ccccc2)N1Cc1cc(F)cc(C(F)(F)F)c1 (stereo not drawn) [Example 2M] | – | – | 162.3 | Ki (HIV protease; Table 2A, read-out: Ki): 10 to 1000 nM; Ki (HIV protease; [2]): 10 to 1000 nM
N#CN=C1N(Cc2cccc(CO)c2)C(Cc2ccccc2)C(O)C(O)C(Cc2ccccc2)N1Cc1cccc(CO)c1 (stereo not drawn) [Example 1CO] | < 10 | < 10 | 193.8 | –
N#CN=C1N(Cc2ccc(N)cc2)C(Cc2ccccc2)C(O)C(O)C(Cc2ccccc2)N1Cc1ccc(N)cc1 (stereo not drawn) [Example 1CE] | 10 to 1000 | < 10 | 226.3 | –

SMILES | Ki (HIV protease; Ki) [nM] | IC90 (HIV-1 (RF) in MT-2 cells; [1]) [µg/mL] | melting point [°C] | other results
N#CN=C1N(Cc2ccc(OCc3ccccc3)cc2)C(Cc2ccccc2)C(O)C(O)C(Cc2ccccc2)N1Cc1ccc(OCc2ccccc2)cc1 (stereo not drawn) [Example 1BT] | 10 to 1000 | > 100 | 90.1 | –
N#CN=C1N(Cc2ccc3ccccc3c2)C(Cc2ccccc2)C(O)C(O)C(Cc2ccccc2)N1Cc1ccc2ccccc2c1 (stereo not drawn) [Example 1BY] | 10 to 1000 | > 100 | 111.1 | –
N#CN=C1N(Cc2ccc(CO)cc2)C(Cc2ccccc2)C(O)C(O)C(Cc2ccccc2)N1Cc1ccc(CO)cc1 (stereo not drawn) [Example 1CN] | 10 to 1000 | < 10 | 100.9 | –
CCCCCCCN1C(=O)N(CCCCCCC)C(Cc2ccccc2)C(O)C(O)C1Cc1ccccc1 (stereo not drawn) [Example 1AB] | – | – | 100 to 101 | Ki (HIV protease; Table 1a, read-out: Ki): 10 to 1000 nM
CC(C)=CCN1C(=O)N(CC=C(C)C)C(Cc2ccccc2)C(O)C(O)C1Cc1ccccc1 (stereo not drawn) [Example 2A] | – | – | 165.1 | Ki (HIV protease; Table 2A, read-out: Ki): < 10 nM; Ki (HIV protease; [2]): < 10 nM; IC90 (HIV-1 (RF) in MT-2 cells; [3]): < 10 µg/mL; IC90 (HIV-1 (RF) in MT-2 cells; [4]): < 10 µg/mL
CC(C)CCN1C(=NC#N)N(CCC(C)C)C(Cc2ccccc2)C(O)C(O)C1Cc1ccccc1 (stereo not drawn) [Example 1CM] | 10 to 1000 | < 10 | 76.1 | –
N#CN=C1N(Cc2cccc(C=NO)c2)C(Cc2ccccc2)C(O)C(O)C(Cc2ccccc2)N1Cc1cccc(C=NO)c1 (stereo not drawn) [Example 1CQ] | < 10 | < 10 | 121.2 | –
O=C1N(CCCc2ccccc2)C(Cc2ccccc2)C(O)C(O)C(Cc2ccccc2)N1CCCc1ccccc1 (stereo not drawn) [Example 2B] | – | – | 120.7 | Ki (HIV protease; Table 2A, read-out: Ki): 10 to 1000 nM; Ki (HIV protease; [2]): 10 to 1000 nM; IC90 (HIV-1 (RF) in MT-2 cells; [3]): < 10 µg/mL; IC90 (HIV-1 (RF) in MT-2 cells; [4]): < 10 µg/mL
O=C1N(Cc2ccc(OC(F)(F)F)cc2)C(Cc2ccccc2)C(O)C(O)C(Cc2ccccc2)N1Cc1ccc(OC(F)(F)F)cc1 (stereo not drawn) [Example 2L] | – | – | 136.8 | Ki (HIV protease; Table 2A, read-out: Ki): 10 to 1000 nM; Ki (HIV protease; [2]): 10 to 1000 nM; IC90 (HIV-1 (RF) in MT-2 cells; [3]): < 10 µg/mL; IC90 (HIV-1 (RF) in MT-2 cells; [4]): < 10 µg/mL
C=C(C)CN1C(=O)N(CC(=C)C)C(Cc2ccccc2)C(O)C(O)C1Cc1ccccc1 (stereo not drawn) [Example 1AJ] | – | – | 205 to 207 | Ki (HIV protease; Table 1a, read-out: Ki): < 10 nM
N#CN=C1N(Cc2cccc(OCc3ccccc3)c2)C(Cc2ccccc2)C(O)C(O)C(Cc2ccccc2)N1Cc1cccc(OCc2ccccc2)c1 (stereo not drawn) [Example 1CA] | 10 to 1000 | > 100 | 75.2 | –
N#CN=C1N(Cc2cccc(O)c2)C(Cc2ccccc2)C(O)C(O)C(Cc2ccccc2)N1Cc1cccc(O)c1 (stereo not drawn) [Example 1CD] | < 10 | < 10 | 124 | –
N#CN=C1N(CC2CCCC2)C(Cc2ccccc2)C(O)C(O)C(Cc2ccccc2)N1CC1CCCC1 (stereo not drawn) [Example 1BV] | < 10 | < 10 | 99.7 | –
CC(C)CCCCN1C(=O)N(CCCCC(C)C)C(Cc2ccccc2)C(O)C(O)C1Cc1ccccc1 (stereo not drawn) [Example 1AN] | 10 to 1000 | – | 105 to 107 | –
CCCCN1C(=NC#N)N(CCCC)C(Cc2ccccc2)C(O)C(O)C1Cc1ccccc1 (stereo not drawn) [Example 1BX] | < 10 | < 10 | 58.3 | –
CCN1C(=O)N(CC)C(Cc2ccccc2)C(O)C(O)C1Cc1ccccc1 (stereo not drawn) [Example 1AD] | – | – | 214 to 215 | Ki (HIV protease; Table 1a, read-out: Ki): 10 to 1000 nM
N#CN=C1N(Cc2ccc([N+](=O)[O-])cc2)C(Cc2ccccc2)C(O)C(O)C(Cc2ccccc2)N1Cc1ccc([N+](=O)[O-])cc1 (stereo not drawn) [Example 1CB] | – | – | 130.3 | Ki (HIV protease; Ki, Table 1c, cyclic guanidines): 10 to 1000 nM; IC90 (HIV-1 (RF) in MT-2 cells; Human immunodeficiency virus 1, MT2): 10 to 100 µg/mL (≈ 16.1 to 161 µM)
